From patent publication US20030157186A1, “Method for maintaining or improving the synthesis of mucins” (priority 2003, published 2003)

Test system: HT29-MTX cells
Assay: Fractional synthesis rate of mucoproteins in vitro (3H-threonine incorporation)
Format: cell-based, human
Conditions: for mucoprotein FSR: day 7 to 21, mean±SEM, n=6
Experimental: The effect of threonine supplementation on the mucin synthesis rate was analyzed in vitro in HT29-MTX cells (human colonic carcinoma cells). HT29-MIX cells were grown in normal Dulbecco's modified minimum essential medium (DMEM) supplemented with 10% (v/v) heat-inactivated fetal bovine serum (Life Technologies) and containing 25 mM glucose, 1% non-essential amino acids (Life Technologies), 2 mM glutamine (AJINOMOTO CO), 85 mg/L penicillin-streptomycin, 50 mg/L gentamicin, and 1.5 mg/L Amphotericin B (Life Technologies). Cells were cultured at 37° C. in an atmosphere containing 10% CO2:90% air. The culture medium was changed daily. Experiments were carried out in T75 cm^2 culture flasks between passages 10 to 20. Studies were performed in the late post-confluent period (21 days after seeding), when all cells display a mucin-secreting phenotype. For the experiment, cells were grown in the normal DMEM until confluency (7 days after seeding). Then from day 7 to day 21 after seeding, several concentrations of threonine in the DMEM were tested, namely, 0.2 mM, 0.4 mM, 0.8 mM and 1.6 mM. At day 20, L-(3-^3H) threonine (30 microCi/Flask) was added to a fresh 10 mL culture medium. The incorporation of the radioactive tracer to newly synthesized mucoproteins was determined for the following 24 hour period. After 24 hours of metabolic labeling, the culture medium of cells was removed. […] An aliquot of each homogenate was removed for the measurement of the specific radioactivity of the intracellular free threonine considered as the precursor pool. […] Purified mucins were hydrolyzed with 6M HCl (24 h at 100° C.), and their amino acid composition was determined by HPLC. […] The fractional synthesis rate (FSR) of mucoproteins was calculated and expressed in percent/day (%/d): (FSR=(Specific radioactivity of mucoprotein bound threonine/Specific radioactivity of intracellular free threonine)*100). […] The mucoprotein FSR was determined for each of the varying concentrations of threonine (mM) in the culture medium of HT29-MTX cells as further shown in FIG. 1.

C[C@@H](O)[C@H](N)C(=O)O [threonine]
mucoprotein FSR (0.2 mM threonine in culture medium): 26.4±1.4%
mucoprotein FSR (0.8 mM threonine in culture medium): 37.3±1.4%
threonine concentration at which mucoprotein FSR reached a plateau (0.2 to 1.6 mM tested): about 0.8 mM
